Laboratory results: patent US20240391965A1, “STAPLED ANTIMICROBIAL PEPTIDES (STAMPS) AND USES THEREOF” (Lytica Therapeutics, Inc., priority 2021, published 2024)
Values after ≈ are worked out from the molar mass of the structure shown. Starred links: 1 amine or outer side, 2 acyl side, 3 side chain; linkers in the order of their positions; H or OH if unused. Positions of bridges follow the written chain, without caps; N, C: chain ends. Residues, ends and D or L forms follow the SMILES beside them. 2,2'Bipyridine(5,5'-diCH2) = c1cc(-c2ccc(C[*:2])cn2)ncc1C[*:1]; Naphthalene(2,6-diCH2) = c1cc2cc(C[*:2])ccc2cc1C[*:1]; mXylylene = c1cc(C[*:1])cc(C[*:2])c1; pXylylene = c1cc(C[*:2])ccc1C[*:1]

Legend:
[1] = test system: Acinetobacter baumannii (A. baumannii); type: cell-based; conditions: microbroth dilution, 20-24 hours at 37° C.
How it was run: (§1)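 Broth microdilution adapted from CLSI in Mueller-Hinton broth or cation-adjusted MHB II; overnight cultures at 37 °C were regrown 3-4 h, then added to serially diluted peptide at a final 5×10^5 CFU/ml. After 20-24 h at 37 °C, MIC was taken as the lowest peptide concentration with no visible growth.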

[2] = test system: Escherichia coli (E. coli); type: cell-based; conditions: microbroth dilution, 20-24 hours at 37° C.
How it was run: as §1

[3] = test system: Klebsiella pneumoniae (K. pneumoniae); type: cell-based; conditions: microbroth dilution, 20-24 hours at 37° C.
How it was run: as §1

[4] = test system: Pseudomonas aeruginosa (P. aeruginosa); type: cell-based; conditions: microbroth dilution, 20-24 hours at 37° C.
How it was run: as §1

[5] = test system: Staphylococcus aureus (S. aureus); type: cell-based; conditions: microbroth dilution, 20-24 hours at 37° C.
How it was run: as §1

[6] = 90 minute cytotoxicity assay (LDH release), renal toxicity; type: cell-based; conditions: 90 minutes of incubation, LDH release; read-out: Inhibitory Concentration at 50% Cytotoxicity (IC50) Human Renal Proximal Tubule Epithelial Cells (RPTEC)
How it was run: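 RPTEC plated overnight, given fresh medium, then exposed to serial peptide dilutions or vehicle for 90 min at 37° C. Medium LDH measured by 10 min reagent incubation and absorbance at 490 nm.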

[7] = 48 hours cytotoxicity assay (CellTiter-Glo), liver toxicity; type: cell-based, human; conditions: 48 hours of incubation, CellTiter-Glo; read-out: Inhibitory Concentration at 50% Cytotoxicity (IC50) Human Liver Cells (HepG2)
How it was run: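 HepG2 cells in EMEM with 10% FBS, allowed to attach 4 h, then exposed to serially diluted StAMPs or vehicle for 48 h at 37 °C. Viability read by CellTiter-Glo luminescence.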

Compound	Minimum Inhibitory Concentration (MIC) A. baumannii [1] [µg/mL]	Minimum Inhibitory Concentration (MIC) E. coli [2] [µg/mL]	Minimum Inhibitory Concentration (MIC) K. pneumoniae [3] [µg/mL]	Minimum Inhibitory Concentration (MIC) P. aeruginosa [4] [µg/mL]	Minimum Inhibitory Concentration (MIC) S. aureus [5] [µg/mL]	IC50 [6] [µg/mL]	IC50 [7] [µg/mL]
CC[C@H](C)[C@H](NC(=O)CN)C(=O)N[C@@H](Cc1ccccc1)C(=O)N[C@@H](CO)C(=O)N[C@@H](CCCCN)C(=O)N[C@@H](CC(C)C)C(=O)N[C@H]1CSCc2ccc3cc(ccc3c2)CSC[C@@H](C(=O)N[C@@H](CC(C)C)C(=O)N[C@H](C(=O)N[C@@H](CO)C(=O)NCC(=O)N[C@@H](CC(C)C)C(=O)N[C@@H](CCCCN)C(=O)NCC(N)=O)[C@@H](C)CC)NC(=O)[C@H](CC(N)=O)NC(=O)[C@H](CCCCN)NC(=O)[C@H]([C@@H](C)CC)NC(=O)[C@H](CCCCN)NC(=O)[C@H](CCCCN)NC(=O)CNC1=O [compound 87] (H-GIFSKLCGKKIKNCLISGLKG-NH2; linker 7-14 via Naphthalene(2,6-diCH2))	4	4	8	8	64	44 (≈ 18.7 µM)	54 (≈ 22.9 µM)
CC[C@H](C)[C@H](NC(=O)CN)C(=O)N[C@@H](Cc1ccccc1)C(=O)N[C@@H](CO)C(=O)N[C@@H](CCCCN)C(=O)N[C@@H](CC(C)C)C(=O)N[C@@H](C)C(=O)NCC(=O)N[C@@H](CCCCN)C(=O)N[C@@H](CCCCN)C(=O)N[C@H](C(=O)N[C@@H](CCCCN)C(=O)N[C@@H](CC(N)=O)C(=O)N[C@@H](CC(C)C)C(=O)N[C@@H](CC(C)C)C(=O)N[C@H]1CSCc2cccc(c2)CSC[C@@H](C(=O)NCC(N)=O)NC(=O)[C@H](CC(C)C)NC(=O)CNC(=O)[C@H](CO)NC1=O)[C@@H](C)CC [compound 32] (H-GIFSKLAGKKIKNLLCSGLCG-NH2; linker 16-20 via mXylylene)	2	2	8	16	>64	30 (≈ 13.3 µM)	41 (≈ 18.2 µM)
CC[C@H](C)[C@H](NC(=O)CN)C(=O)N[C@@H](Cc1ccccc1)C(=O)N[C@@H](CO)C(=O)N[C@@H](CCCCN)C(=O)N[C@@H](CC(C)C)C(=O)N[C@@H](C)C(=O)NCC(=O)N[C@@H](CCCCN)C(=O)N[C@@H](CCCCN)C(=O)N[C@H](C(=O)N[C@@H](CCCCN)C(=O)N[C@@H](CC(N)=O)C(=O)N[C@@H](CC(C)C)C(=O)N[C@H]1CSCc2cccc(c2)CSC[C@@H](C(=O)N[C@@H](CCCCN)C(=O)NCC(N)=O)NC(=O)CNC(=O)[C@H](CO)NC(=O)[C@H]([C@@H](C)CC)NC1=O)[C@@H](C)CC [compound 29] (H-GIFSKLAGKKIKNLCISGCKG-NH2; linker 15-19 via mXylylene)	16	64	>64	64	>64	> 200	~200 (≈ 88.2 µM)
CC[C@H](C)[C@H](NC(=O)[C@H](CC(C)C)NC(=O)[C@H](CC(C)C)NC(=O)[C@H](CC(N)=O)NC(=O)[C@H](CCCCN)NC(=O)[C@@H](NC(=O)[C@H](CCCCN)NC(=O)[C@H](CCCCN)NC(=O)[C@@H]1CSCc2ccc(nc2)-c2ccc(cn2)CSC[C@H](N)C(=O)N[C@@H]([C@@H](C)CC)C(=O)N[C@@H](Cc2ccccc2)C(=O)N[C@@H](CO)C(=O)N[C@@H](CCCCN)C(=O)N[C@@H](CC(C)C)C(=O)N[C@@H](C)C(=O)N1)[C@@H](C)CC)C(=O)N[C@@H](CO)C(=O)NCC(=O)N[C@@H](CC(C)C)C(=O)N[C@@H](CCCCN)C(=O)NCC(N)=O [compound 49] (H-CIFSKLACKKIKNLLISGLKG-NH2; linker 1-8 via 2,2'Bipyridine(5,5'-diCH2); N-terminus assumed)	32	32	>64	>64	>64	60 (≈ 24.4 µM)	22 (≈ 8.95 µM)
CC[C@H](C)[C@H](NC(=O)CN)C(=O)N[C@@H](Cc1ccccc1)C(=O)N[C@@H](CO)C(=O)N[C@@H](CCCCN)C(=O)N[C@@H](CC(C)C)C(=O)N[C@@H](C)C(=O)NCC(=O)N[C@@H](CCCCN)C(=O)N[C@@H](CCCCN)C(=O)N[C@H]1CSCc2ccc(cc2)CSC[C@@H](C(=O)N[C@H](C(=O)N[C@@H](CO)C(=O)NCC(=O)N[C@@H](CC(C)C)C(=O)N[C@@H](CCCCN)C(=O)NCC(N)=O)[C@@H](C)CC)NC(=O)[C@H](CC(C)C)NC(=O)[C@H](CC(N)=O)NC(=O)[C@H](CCCCN)NC1=O [compound 18] (H-GIFSKLAGKKCKNLCISGLKG-NH2; linker 11-15 via pXylylene)	>64	>64	>64	>64	>64	> 200	> 200
CC[C@H](C)[C@H](NC(=O)CN)C(=O)N[C@@H](Cc1ccccc1)C(=O)N[C@H]1CSCc2ccc(nc2)-c2ccc(cn2)CSC[C@@H](C(=O)N[C@@H](CCCCN)C(=O)N[C@@H](CC(N)=O)C(=O)N[C@@H](CC(C)C)C(=O)N[C@@H](CC(C)C)C(=O)N[C@H](C(=O)N[C@@H](CO)C(=O)NCC(=O)N[C@@H](CC(C)C)C(=O)N[C@@H](CCCCN)C(=O)NCC(N)=O)[C@@H](C)CC)NC(=O)[C@H](CCCCN)NC(=O)[C@H](CCCCN)NC(=O)CNC(=O)[C@H](C)NC(=O)[C@H](CC(C)C)NC(=O)[C@H](CCCCN)NC1=O [compound 57] (H-GIFCKLAGKKCKNLLISGLKG-NH2; linker 4-11 via 2,2'Bipyridine(5,5'-diCH2); N-terminus assumed)	16	16	>64	>64	>64	> 200	103 (≈ 43.4 µM)
CC[C@H](C)[C@H](NC(=O)CN)C(=O)N[C@@H](Cc1ccccc1)C(=O)N[C@@H](CO)C(=O)N[C@@H](CCCCN)C(=O)N[C@@H](CC(C)C)C(=O)N[C@H]1CSCc2ccc(nc2)-c2ccc(cn2)CSC[C@@H](C(=O)N[C@@H](CC(C)C)C(=O)N[C@H](C(=O)N[C@@H](CO)C(=O)NCC(=O)N[C@@H](CC(C)C)C(=O)N[C@@H](CCCCN)C(=O)NCC(N)=O)[C@@H](C)CC)NC(=O)[C@H](CC(N)=O)NC(=O)[C@H](CCCCN)NC(=O)[C@H]([C@@H](C)CC)NC(=O)[C@H](CCCCN)NC(=O)[C@H](CCCCN)NC(=O)CNC1=O [compound 89] (H-GIFSKLCGKKIKNCLISGLKG-NH2; linker 7-14 via 2,2'Bipyridine(5,5'-diCH2))	4	4	16	32	>64	80 (≈ 33.5 µM)	62 (≈ 26 µM)
CC[C@H](C)[C@H](NC(=O)CN)C(=O)N[C@@H](Cc1ccccc1)C(=O)N[C@@H](CO)C(=O)N[C@@H](CCCCN)C(=O)N[C@@H](CC(C)C)C(=O)N[C@@H](C)C(=O)NCC(=O)N[C@@H](CCCCN)C(=O)N[C@H]1CSCc2cccc(c2)CSC[C@@H](C(=O)N[C@@H](CC(C)C)C(=O)N[C@H](C(=O)N[C@@H](CO)C(=O)NCC(=O)N[C@@H](CC(C)C)C(=O)N[C@@H](CCCCN)C(=O)NCC(N)=O)[C@@H](C)CC)NC(=O)[C@H](CC(N)=O)NC(=O)[C@H](CCCCN)NC(=O)[C@H]([C@@H](C)CC)NC1=O [compound 14] (H-GIFSKLAGKCIKNCLISGLKG-NH2; linker 10-14 via mXylylene)	8	4	16	16	32	41 (≈ 18.2 µM)	49 (≈ 21.8 µM)
